Laboratory results as given in US20030158529A1 (priority 2001, published 2003).
Like-named read-outs stand apart in the source and are kept apart here.

Legend:
Assay type in all cases: cell-based, Staphylococcus aureus
S. aureus (MN8) = test system: S. aureus (MN8)
S. aureus FRI-1169 = test system: S. aureus FRI-1169
S. aureus FRI-1187 = test system: S. aureus FRI-1187

SMILES | CFU/mL (S. aureus (MN8)) [CFU/mL] | ELISA: TSST-1 ng/OD unit (S. aureus (MN8)) [ng/OD unit] | Optical Density 600 nm (S. aureus (MN8)) | Reduction of Toxin (%) (S. aureus (MN8)) | ELISA: TSST-1 ng/OD unit (S. aureus (MN8); S. aureus MN8, 2 μg/mL test compound, 24 hours) [ng/OD unit] | Optical Density 600 nm (S. aureus (MN8); S. aureus MN8, 2 μg/mL test compound, 24 hours, 35° C.) | CFU/mL (S. aureus FRI-1169) [CFU/mL] | Optical Density 600 nm (S. aureus FRI-1169) | ELISA: TSST-1 ng/OD unit (S. aureus FRI-1169; S. aureus FRI-1169, 0.5 μg/mL) [ng/OD unit] | CFU/mL (S. aureus FRI-1187) [CFU/mL] | Optical Density 600 nm (S. aureus FRI-1187) | ELISA: TSST-1 ng/OD unit (S. aureus FRI-1187; S. aureus FRI-1187, 0.5 ug/mL) [ng/OD unit] | ELISA: TSST-1 ng/OD unit (S. aureus (MN8); S. aureus MN8, 0.01 μg/mL test compound, 24 hours) [ng/OD unit] | Optical Density 600 nm (S. aureus (MN8); S. aureus MN8, 0.01 μg/mL test compound, 24 hours, 35° C.)
Oc1ccc(Cc2ccccc2)cc1 [4-Hydroxydiphenylmethane, 4-hydroxydiphenyl methane] | 1.1E+08 | 785 | 0.581 | – | – | – | – | – | – | – | – | – | – | –
Oc1c(Cl)cc(Cl)c(Cl)c1Cc1c(O)c(Cl)cc(Cl)c1Cl [Hexachlorophene, hexachlorophene] | 3.7E+08 | – | – | 68 | 330 | 0.350 | – | – | – | – | – | – | – | –
Oc1cc(Cl)ccc1Oc1ccc(Cl)cc1Cl [Triclosan, triclosan] | 1.0E+08 | – | – | 88 | – | – | 1.50E+09 | 0.625 | 40 | 1.56E+09 | 0.156 | 95 | 129 | 0.271
